Assay results published in ChEMBL document CHEMBL3785091, “Discovery of AZD8165 a clinical candidate from a novel series of neutral thrombin inhibitors” (Medchemcomm, 2016).
Values after ≈ are worked out from the molar mass of the structure shown. One block for each molecule: values may come before it.

Experiments:
[1] = Bioavailability in Sprague-Dawley rat; format: ADME, organism-based; conditions: in vivo
[2] = Kinetic solubility of compound in HBSS-MES buffer at 5 to 10 mM at pH 6.8 by LC-UV/MS analysis; format: physicochemical; conditions: read-out: Kinetic_solubility
Rattus norvegicus [3] = species on record: Rattus norvegicus; assay: Toxicity in rat arterial thrombosis model assessed as increase in bleeding time; format: organism-based; conditions: in vivo
Rattus norvegicus [4] = species on record: Rattus norvegicus; assay: Cardiotoxicity in rat by electrophysiology assay relative to control; format: toxicity, organism-based; conditions: in vivo
Mus musculus = species on record: Mus musculus; assay: Cardiotoxicity in mouse by electrophysiology assay relative to control; format: toxicity, organism-based; conditions: in vivo
Cavia porcellus = species on record: Cavia porcellus; assay: Cardiotoxicity in guinea pig by cardiac electrophysiology assay relative to control; format: toxicity, organism-based, Heart; conditions: in vivo
Rattus norvegicus [5] = species on record: Rattus norvegicus; assay: Toxicity in rat by irwin assay relative to control; format: organism-based; conditions: in vivo
Rattus norvegicus [6] = assay: Oral bioavailability in rat assessed as (5S)-N-[5-Chloro-2-(1H-tetrazol-1-yl)benzyl]-1-[(2R)-2-(4-fluorophenyl)-2-hydroxyacetyl]-4,5-dihydro-1H-pyrazole-5-carboxamide level; format: ADME, organism-based; conditions: in vivo
Canis familiaris = assay: Oral bioavailability in dog assessed as (5S)-N-[5-Chloro-2-(1H-tetrazol-1-yl)benzyl]-1-[(2R)-2-(4-fluorophenyl)-2-hydroxyacetyl]-4,5-dihydro-1H-pyrazole-5-carboxamide level; format: ADME, organism-based, Canis lupus familiaris; conditions: in vivo
[7] = Drug excretion in rat urine assessed as compound unchanged; format: ADME, tissue-based; conditions: read-out: Drug excretion
[8] = Drug excretion in dog urine assessed as compound unchanged; format: ADME, tissue-based, Canis lupus familiaris; conditions: read-out: Drug excretion
[9] = Drug metabolism in rat urine; format: ADME, tissue-based
[10] = Drug metabolism in dog urine; format: ADME, tissue-based, Canis lupus familiaris
[11] = Drug excretion in rat bile assessed as (5S)-N-[5-Chloro-2-(1H-tetrazol-1-yl)benzyl]-1-[(2R)-2-(4-fluorophenyl)-2-hydroxyacetyl]-4,5-dihydro-1H-pyrazole-5-carboxamide level; format: ADME, tissue-based; conditions: in vivo
[12] = Drug excretion in dog bile assessed as (5S)-N-[5-Chloro-2-(1H-tetrazol-1-yl)benzyl]-1-[(2R)-2-(4-fluorophenyl)-2-hydroxyacetyl]-4,5-dihydro-1H-pyrazole-5-carboxamide level; format: ADME, tissue-based, Canis lupus familiaris; conditions: in vivo
[13] = Drug excretion in human urine; format: ADME, tissue-based
Rattus norvegicus [14] = assay: Bioavailability in rat dosed via colon route assessed as (5S)-N-[5-Chloro-2-(1H-tetrazol-1-yl)benzyl]-1-[(2R)-2-(4-fluorophenyl)-2-hydroxyacetyl]-4,5-dihydro-1H-pyrazole-5-carboxamide level; format: ADME, organism-based; conditions: in vivo, other
Homo sapiens [15] = assay: Toxicity in po dosed human; format: organism-based; conditions: in vivo
Homo sapiens [16] = assay: Oral bioavailability in human; format: ADME, organism-based; conditions: in vivo

bioavailability [1]: 63%
solubility kinetic [2]: 97 µM (≈ 43.9 µg/mL)
Structure (SMILES): O=C(NCc1cc(Cl)ccc1-n1cnnn1)[C@@H]1C[C@@H]2C[C@@H]2N1C(=O)[C@H](O)c1ccccc1

solubility kinetic [2]: 87.5 µM (≈ 43.7 µg/mL)
Structure (SMILES): CC(=O)O[C@@H](C(=O)N1N=CC[C@H]1C(=O)NCc1cc(Cl)ccc1-n1cnnn1)c1ccc(F)cc1

bioavailability [1]: 57%
solubility kinetic [2]: 97 µM (≈ 42 µg/mL)
Structure (SMILES): CC(C)(C)[C@@H](O)C(=O)N1C[C@@H]2C[C@@H]2[C@H]1C(=O)NCc1cc(Cl)ccc1-n1cnnn1

bioavailability [1]: 86%
solubility kinetic [2]: 100 µM (≈ 45.3 µg/mL)
Structure (SMILES): O=C(NCc1cc(Cl)ccc1-n1cnnn1)[C@@H]1C[C@H]2C[C@H]2N1C(=O)[C@H](O)c1ccccc1

bioavailability [1]: 70%
solubility kinetic [2]: 59 µM (≈ 24.8 µg/mL)
Structure (SMILES): CCCC[C@@H](O)C(=O)N1N=CC[C@H]1C(=O)NCc1cc(Cl)ccc1-n1cnnn1

solubility kinetic [2]: < 1 µM
Structure (SMILES): CCCC(=O)O[C@@H](C(=O)N1N=CC[C@H]1C(=O)NCc1cc(Cl)ccc1-n1cnnn1)c1ccc(F)cc1

bioavailability [1]: 60%
solubility kinetic [2]: 98 µM (≈ 43.1 µg/mL)
Structure (SMILES): O=C(NCc1cc(Cl)ccc1-n1cnnn1)[C@@H]1CC=NN1C(=O)[C@H](O)c1ccccc1

bioavailability [1]: 75%
solubility kinetic [2]: 95 µM (≈ 43.5 µg/mL)
Structure (SMILES): O=C(NCc1cc(Cl)ccc1-n1cnnn1)[C@@H]1CC=NN1C(=O)[C@H](O)c1ccc(F)cc1
fold change (FC) (Rattus norvegicus [3]): 2
fold change (FC) (Rattus norvegicus [4]): > 40
fold change (FC) (Mus musculus): > 40
fold change (FC) (Cavia porcellus): > 40
fold change (FC) (Rattus norvegicus [5]): > 24

solubility kinetic [2]: 20.5 µM (≈ 11.1 µg/mL)
Structure (SMILES): CCCCC(=O)O[C@@H](C(=O)N1N=CC[C@H]1C(=O)NCc1cc(Cl)ccc1-n1cnnn1)c1ccc(F)cc1

Structure (SMILES): CCC(=O)O[C@@H](C(=O)N1N=CC[C@H]1C(=O)NCc1cc(Cl)ccc1-n1cnnn1)c1ccc(F)cc1 [AZD-8165]
solubility kinetic [2]: 2.5 µM (≈ 1.28 µg/mL)
F (Rattus norvegicus [6]): 64%
F (Canis familiaris): 52%
dose excreted [7]: 66%
dose excreted [8]: 18%
Drug metabolism [9]: metabolite_detected
Drug metabolism [10]: metabolite_detected
Drug excretion [11]: metabolite_notdetected
Drug excretion [12]: metabolite_notdetected
fold change (FC) (Rattus norvegicus [4]): > 40
fold change (FC) (Mus musculus): > 40
fold change (FC) (Cavia porcellus): > 40
fold change (FC) (Rattus norvegicus [5]): > 24
Drug excretion [13]: metabolite_notdetected
F (Rattus norvegicus [14]): 30%
MTD (Homo sapiens [15]): 2.5 mg

F (Homo sapiens [16]): 20%
Structure (SMILES): CCOC(=O)CN[C@@H](C(=O)N1CC[C@H]1C(=O)NCc1ccc(/C(N)=N\O)cc1)C1CCCCC1 [XIMELAGATRAN]
